Test system: Tetrahymena pyriformis
Assay: 48 h IGC50 (-log10 mol/L); higher = more toxic

SMILES | 48 h IGC50 (-log10 mol/L)
Cc1ccc(O)c(Br)c1 | 3.6
O=C(O)c1c(Cl)cc(Cl)cc1Cl | 2.59
CC(=O)OCCCCCBr | 3.29
CC(Br)c1ccccc1 (stereo not drawn) | 2.33
NC(=O)COc1ccccc1 | 2.27
O=C/C(Cl)=C/c1ccccc1 | 4.73
CC#CCCO | 1.82
Nc1ccc([N+](=O)[O-])cc1[N+](=O)[O-] | 3.72
Oc1c(Br)cc(Br)c(O)c1Br | 4.06
O=C(O)c1ccc(O)cc1 | 1.98
N#CCCCCC#N | 1.46
CC(=O)OCCCCCCl | 2.87
Cc1cccc(N)c1 | 2.72
OCC(c1ccccc1)c1ccccc1 | 3.65
O=Cc1cccc(Br)c1 | 3.51
CCCCOC(=O)c1ccc(O)cc1 | 4.33
Cc1cc[nH]c(=O)c1[N+](=O)[O-] | 2.5
CCCOC(=O)c1ccccc1C(=O)OCCC | 3.98
Cc1ccc([N+](=O)[O-])cc1O | 3.66
ClC(Cl)c1ccccc1 | 3.11
OCCC(c1ccccc1)c1ccccc1 | 4.04
CCCCCC(=O)CC(C)=O | 3.51
CC(O)CCC(C)O (stereo not drawn) | 1.04
C#CC(O)CC (stereo not drawn) | 1.82

SMILES | 48 h IGC50 (-log10 mol/L)
C=C(C)C(=O)OC | 1.78
CCCOC(=O)CCC | 2.59
CC(C)(C)C#N | 1.68
CCCCCCCCC(O)CO (stereo not drawn) | 3.76
CCOC(=O)c1ccc(Cl)cc1 | 3.75
C#CCC(O)CC (stereo not drawn) | 1.6
CCc1ccco1 | 2.48
O=[N+]([O-])c1cccc(O)c1 | 3.51
NCc1ccccc1 | 2.76
O=[N+]([O-])c1cc(Br)ccc1O | 4.87
CCCC(=O)CCC | 2.33
Fc1ccccn1 | 1.8
N#Cc1ccncc1 | 2.18
O=[N+]([O-])c1cc(C(F)(F)F)ccc1Cl | 3.85
CCCCCCCCNC(N)=S | 4.51
O=C(O)CCCCCCC(=O)O | 2.49
CCCC(C)O (stereo not drawn) | 1.84
Fc1nc(F)c(F)c(Br)c1F | 2.87
CCOC(=O)CCCBr | 2.97
O=C(CBr)c1cccs1 | 5.22
O=Cc1ccc(O)c(O)c1 | 3.11
Cc1cccc(C)c1N=C=S | 4.5
N#Cc1ccc(Cl)s1 | 2.92
COc1cc(C(C)=O)ccc1O | 2.88

SMILES | 48 h IGC50 (-log10 mol/L)
N#Cc1ccc(C=O)cc1 | 3.04
CCNC(C)=O | 1.3
Cc1cc(C)c(O)c(C(C)(C)C)c1 | 4.16
CC(C)(C)c1ccc(N)cc1 | 3.36
CCC#CC(C)=O | 4.32
CCC(C)OC(C)=O (stereo not drawn) | 2.32
COc1ccc(C(C)=O)cc1 | 2.87
O=C(O)c1cc(Cl)ccc1Cl | 2.54
C=CCS(=O)(=O)c1ccccc1 | 3.31
CC(=O)c1cccc([N+](=O)[O-])c1 | 3.32
ClCCCc1ccccc1 | 3.5
CCc1cccc(O)c1 | 3.29
O=[N+]([O-])c1cc([N+](=O)[O-])c(F)cc1F | 5.08
CCOC(=O)CBr | 5.68
CCOC(=O)CCCCCC(=O)OCC | 3.41
CC1CC(=O)O1 (stereo not drawn) | 2.24
NNC(=O)CCCCC(=O)NN | 1.63
O=C(O)c1ccccc1Cl | 2.55
C/C=C/C(=O)CC | 3.92
O=C(O)c1cc(Br)ccc1Br | 2.69
Oc1ccc(C(F)(F)F)cc1 | 3.62
O=C(c1ccccc1)c1ccc(O)cc1O | 4.37
CCCC(C)C=O (stereo not drawn) | 2.53
CCOC(=O)c1ccc(I)cc1 | 4.53

SMILES | 48 h IGC50 (-log10 mol/L)
CCOC(=O)C(Br)C(=O)OCC | 5.21
Clc1cc(Cl)cc(Cl)c1 | 3.87
Oc1cc(Cl)ccc1Cl | 4.13
C/C=C/CC(=O)OC | 2.72
O=[N+]([O-])c1ccc(CO)cc1 | 3.12
CCCCCC/C=C/CO | 3.75
CCOC(=O)C[C@H](C)O | 1.47
CC(C)CC#N | 2.12
O=Cc1ccc[nH]1 | 2.52
O=[N+]([O-])c1cc(Cl)ccc1O | 5.12
Cc1cc(O)c(C(C)C)cc1Cl | 4.85
N#Cc1cccc2ccccc12 | 3.69
C=C(C=O)CCCC | 4.07
CCCCCC(N)=O | 2.09
O=C(CBr)Nc1cc([N+](=O)[O-])ccc1O | 3.87
O=[N+]([O-])c1cc(Cl)c(Cl)c([N+](=O)[O-])c1Cl | 5.6
CCc1cccc(N)c1 | 2.97
CCC[C@H](O)c1ccccc1 | 2.91
CCCCCCCN | 3.21
C=CC(C)(C)O | 1.61
O=[N+]([O-])CBr | 4.64
O=[N+]([O-])c1cc(O)ccc1Cl | 4.27
CCCCCCC#CCCO | 4.13
CC=CC(=O)OCC(C)C | 2.66

SMILES | 48 h IGC50 (-log10 mol/L)
CCOC(=O)C(C)(C)Br | 3.15
CC(Br)C(N)=O (stereo not drawn) | 3
CCCCCOc1ccc(C=O)cc1 | 4.18
CCCCC#N | 1.99
CCOC(=O)C=C(C)C | 2.52
O=[N+]([O-])c1cccc(-c2ccccc2)c1 | 4.57
c1cnccn1 | 1.18
N#CCc1ccc(Br)cc1 | 3.6
CCOC(=O)c1ccc(O)cc1 | 3.57
CCC=CCCC=CC=O | 4.34
CCCCCCC(=O)O | 2.89
N#CCc1ccc(Cl)cc1 | 3.66
CCCCCCOC(C)=O | 2.99
O=C(c1ccccc1)c1ccc(O)c(O)c1O | 3.88
CC(Cl)C#N (stereo not drawn) | 2.14
Cc1nc2ccccc2nc1C | 3.25
CC(C)CCBr | 3.25
CCC(=O)CC | 1.54
CCCCCC/C=C/C=O | 4.6
NNC(=O)c1ccccc1O | 3.18
CCOC(=O)c1ccc(C(C)(C)C)cc1 | 4.42
CCOC(=O)C(C)C | 1.73
